{
  "source": "patent US5741805A",
  "about": "“Controlled release pilocarpine delivery system” (OraMed, Inc., priority 1995, dated 1998)",
  "origin": "cited, not measured here",
  "tested_on": "xerostomia",
  "details": "5 mg capsules or tablets three to four times a day",
  "data": [
    {"smiles": "CC[C@@H]1C(=O)OC[C@@H]1Cc1cncn1C", "note": "[Pilocarpine, pilocarpine]", "values": [
      {"measurement": "salivary function", "value": "marked improvement"},
      {"measurement": "side effects", "value": "numerous side effects"}
    ]}
  ]
}
